Measured values taken from US6649603B2, “Cyclylamine sulfonamides as β3-adrenergic receptor agonists” (Wyeth, priority 2000, dated 2003).
pEC50: −log10 of the molar value.

Assays:
[1] = biological target: T1, human β2-adrenergic receptor (Homo sapiens, UniProt P07550); test: cAMP accumulation (SPA) in CHO cells transfected with human β2 adrenergic receptor; type: cell-based; conditions: for beta-2 IA (maximal response relative to isoproterenol at 10^-5 M): fraction of maximal isoproterenol response
T1 construct: expressed in transfected cells; host or cells: CHO cells
Description: (§1) The ability of compounds of this invention to treat or inhibit disorders related to insulin resistance or hyperglycemia was established with representative compounds of this invention in the following standard pharmacological test procedures, which measured the binding selectivity to the β1, β2, and β3 adrenergic receptors. Binding to the receptors was measured in Chinese Hamster ovary (CHO) cells that were transfected with adrenergic receptors. The following briefly summarizes the procedures used and results obtained.
(§2) Transfection of CHO cells with β1 and β2 adrenergic receptors: CHO cells were transfected with human β1- or β2-adrenergic receptors as described in Tate, K. M., Eur. J. Biochem., 196:357-361 (1991).
(§3) Binding Procedure: Clones expressing receptor levels of 70 to 110 fmoles/mg protein were used in the test procedures. CHO cells were grown in 24-well tissue culture plates in Dulbecco's Modified Eagle Media with 10% fetal bovine serum, MEM non-essential amino acids, Penicillin-Streptompycin and Geneticin. On the day of test procedure, growth medium was replaced with preincubation media (Dulbecco's Modified Eagle Media and incubated for 30 minutes at 37° C. Preincubation medium was replaced with 0.2 ml treatment medium containing DMEM media containing 250 μM IBMX (isobutyl-1-methylxantine) plus 1 mM ascorbic acid with test compound dissolved in DMSO. Test compounds were tested over a concentration range of 10^−9 M to 10^−5 M for β3 cells and 10^−8 to 10^−4 M for β1 and β2 transfected cells. Isoproterenol (10^−5 M) was used as an internal standard for comparison of activity. Cells were incubated at 37° C. on a rocker for 30 min with the β3 cells and 15 min for […]. Incubation was stopped with the addition of 0.2N HCl and neutralized with 2.5N NaOH. The plates, containing the cells and neutralized media, were stored at −20 degrees celsius until ready to test for cAMP using the SPA test kit (Amersham).
(§4) Data Analysis and Results: Data collected from the SPA test procedure were analyzed as per cent of the maximal isoproterenol response at 10^−5 M. Activity curves were plotted using the SAS statistical and graphics software. EC50 values were generated for each compound and the maximal response (IA) developed for each compound is compared to the maximal response of isoproternol at 10^−5 M from the following formula: [formula]

[2] = biological target: T2, human β3 adrenergic receptor (Homo sapiens, UniProt P13945); test: cAMP accumulation (SPA) in CHO cells transfected with human β3 adrenergic receptor; type: cell-based; conditions: for pEC50 / beta-3 IA (maximal response relative to isoproterenol at 10^-5 M): CHO cells, cAMP; for pEC50: 30 min incubation, read-out: beta-3 EC50; for beta-3 IA (maximal response relative to isoproterenol at 10^-5 M): fraction of maximal isoproterenol response
T2 construct: Full length β3 AR clones (402 amino acids) containing the last 6 amino acids of hβ3_AR are prepared; expressed in transfected cells; host or cells: CHO cells
Description: as §1
Cloning of Human β3-AR Genomic DNA: cDNA was constructed by ligating four polymerase chain reaction (PCR) products using the following primers: an ATG-NarI fragment, sense primer 5′-[…]3′ and anti-sense primer 5′[…]3′; a NarI-AccI fragment, 5′[…]3′ as sense and 5′[…]3′ as anti-sense primer; an Accli-Styl fragment, sense primer 5′[…]3′ and anti-sense primer 5′[…]3′ and a Styl-TAG fragment, with sense primer 5′[…]3′ and anti-sense primer 5′[…]3′. The corresponding primer sequences are described in Mantzoros, C. S., et.al., Diabetes 45: 909-914 (1996). The four fragments are ligated into a pUC 18 plasmid (Gibco-BRL) and sequenced. Full length β3 AR clones (402 amino acids) containing the last 6 amino acids of hβ3_AR are prepared with the β3-βARpcDNA3 from ATTC.
as §3, §4

[3] = biological target: T3, human β1-adrenergic receptor (Homo sapiens, UniProt P08588); test: cAMP accumulation (SPA) in CHO cells transfected with human β1 adrenergic receptor; type: cell-based; conditions: for beta-1 IA (maximal response relative to isoproterenol at 10^-5 M): fraction of maximal isoproterenol response
T3 construct: expressed in transfected cells; host or cells: CHO cells
Description: as §1, §2, §3, §4

T3 sequence (P08588 whole entry): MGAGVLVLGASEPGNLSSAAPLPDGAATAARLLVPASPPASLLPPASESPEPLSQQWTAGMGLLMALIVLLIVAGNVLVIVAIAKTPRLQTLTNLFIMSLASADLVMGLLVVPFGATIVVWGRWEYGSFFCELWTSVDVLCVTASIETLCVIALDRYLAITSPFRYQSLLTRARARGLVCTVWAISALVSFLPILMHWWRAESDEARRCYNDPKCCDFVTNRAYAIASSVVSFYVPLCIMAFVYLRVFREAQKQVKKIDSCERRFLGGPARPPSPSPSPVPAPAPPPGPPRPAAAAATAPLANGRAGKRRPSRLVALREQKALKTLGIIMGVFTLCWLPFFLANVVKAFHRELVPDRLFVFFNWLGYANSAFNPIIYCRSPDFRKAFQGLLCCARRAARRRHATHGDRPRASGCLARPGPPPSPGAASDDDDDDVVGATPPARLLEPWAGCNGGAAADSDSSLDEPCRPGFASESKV
T2 sequence (P13945 whole entry): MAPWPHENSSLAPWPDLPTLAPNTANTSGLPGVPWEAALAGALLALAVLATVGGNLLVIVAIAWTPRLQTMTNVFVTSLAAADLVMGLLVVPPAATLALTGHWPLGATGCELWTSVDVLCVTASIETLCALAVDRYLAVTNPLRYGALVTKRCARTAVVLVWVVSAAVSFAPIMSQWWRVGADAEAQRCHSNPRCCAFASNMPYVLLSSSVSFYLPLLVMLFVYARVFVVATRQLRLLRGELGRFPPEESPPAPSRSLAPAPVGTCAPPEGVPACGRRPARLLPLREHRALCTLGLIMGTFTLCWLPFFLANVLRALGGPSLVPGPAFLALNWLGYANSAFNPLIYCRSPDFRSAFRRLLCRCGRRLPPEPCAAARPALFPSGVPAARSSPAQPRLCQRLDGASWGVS
T1 sequence (P07550 whole entry): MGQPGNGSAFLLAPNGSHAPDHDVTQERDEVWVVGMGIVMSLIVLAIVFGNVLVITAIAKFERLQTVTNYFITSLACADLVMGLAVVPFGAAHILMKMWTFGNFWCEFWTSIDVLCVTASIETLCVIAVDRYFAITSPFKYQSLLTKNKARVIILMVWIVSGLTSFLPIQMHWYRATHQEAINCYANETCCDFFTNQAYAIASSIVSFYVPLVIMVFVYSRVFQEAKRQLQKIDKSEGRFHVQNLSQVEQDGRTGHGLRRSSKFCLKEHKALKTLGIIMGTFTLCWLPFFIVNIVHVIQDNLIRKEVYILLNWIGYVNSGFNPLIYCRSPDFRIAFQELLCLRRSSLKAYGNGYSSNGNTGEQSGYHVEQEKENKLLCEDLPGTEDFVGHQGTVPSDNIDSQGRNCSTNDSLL

Structure (SMILES)	melting point [°C]	beta-2 IA (maximal response relative to isoproterenol at 10^-5 M) [1]	pEC50 ([1]; read-out: beta-2 EC50)	pEC50 [2]	beta-3 IA (maximal response relative to isoproterenol at 10^-5 M) [2]	beta-1 IA (maximal response relative to isoproterenol at 10^-5 M) [3]	pEC50 ([3]; read-out: beta-1 EC50)	beta-3 activity at single concentration ([2]; at 10 μM, per cent of maximal isoproterenol response) [% at 10 μM]
CCCCOc1ccc(S(=O)(=O)N2CCC(NCC(O)c3ccc(O)c(NS(C)(=O)=O)c3)C2)cc1 (stereo not shown) [Example 6, N-(5-{2-[1-(4-Butoxy-benzenesulfonyl)-pyrrolidin-3-ylamino]-1-hydroxy-ethyl}-2-hydroxy-phenyl)-methanesulfonamide]	95 to 98	–	–	–	–	–	–	–
CCCCOc1ccc(S(=O)(=O)N2CC(NC[C@H](O)COc3ccc(O)cc3)C2)cc1 [Example 1, 4-{(2S)-3-[1-(4-Butoxy-benzenesulfonyl)-azetidin-3-ylamino]-2-hydroxy-propoxy}-phenol]	55 to 58	0.39	6.05	7.52	0.82	0.49	5.80	–
O=c1[nH]c2cccc(OC[C@@H](O)CNC3CCN(S(=O)(=O)c4cccc5nsnc45)CC3)c2[nH]1 [Example 8, 4-{(2S)-3-[1-(Benzo[1,2,5]thiadiazole-4-sulfonyl)-piperidin-4-ylamino]-2-hydroxy-propoxy}-1,3-dihydro-benzoimidazol-2-one]	–	–	–	6.10	0.75	–	–	–
COc1ccc(S(=O)(=O)N2CCC(NC[C@H](O)COc3cccc4[nH]c5ccccc5c34)CC2)cc1 [Example 15, (2S)-1-(9H-Carbazol-4-yloxy)-3-[1-(4-methoxy-benzenesulfonyl)-piperidin-4-ylamino]-propan-2-ol]	–	(0.03)	–	7.22	0.88	(0.1)	–	–
CCCCOc1ccc(S(=O)(=O)N2CC(NCC(O)c3ccc(O)c(NS(C)(=O)=O)c3)C2)cc1 (stereo not shown) [Example 5, N-(5-{2-[1-(4-Butoxy-benzenesulfonyl)-azetidin-3-ylamino]-1-hydroxy-ethyl)-2-hydroxy-phenyl)-methanesulfonamide]	67 to 70	–	–	–	–	–	–	78
CS(=O)(=O)Nc1cc(C(O)CNC2CCN(S(=O)(=O)c3ccc4oc5ccccc5c4c3)CC2)ccc1O (stereo not shown) [Example 23, N-(5-(2-[1-(Dibenzofuran-2-sulfonyl)-piperidin-4-ylamino]-1-hydroxy-ethyl}-2-hydroxy-phenyl)-methanesulfonamide]	–	–	–	7.00	0.88	–	–	–
CCCCOc1ccc(S(=O)(=O)N2CC(NCC(O)COc3cccc4[nH]c5ccccc5c34)C2)cc1 (stereo not shown) [Example 3, 1-[1-(4-Butoxy-benzenesulfonyl)-azetidin-3-ylamino]-3-(9H-carbazol-4-yloxy)-propan-2-ol]	81 to 84	–	–	–	–	–	–	–
CCCCOc1ccc(S(=O)(=O)N2CCC(NC[C@H](O)COc3cccc4[nH]c5ccccc5c34)CC2)cc1 [Example 14, (2S)-1-[1-(4-Butoxy-benzenesulfonyl)-piperidin-4-ylamino]-3-(9H-carbazol-4-yloxy)-propan-2-ol]	–	(0.07)	–	6.07	0.74	(0.04)	–	–
COc1ccc(S(=O)(=O)N2CCC(NC[C@H](O)COc3cccc4[nH]c5ccccc5c34)CC2)cc1OC [Example 21, (2S)-1-(9H-Carbazol-4-yloxy)-3-[1-(3,4-dimethoxy-benzenesulfonyl)-piperidin-4-ylamino]-propan-2-ol]	–	(0.02)	–	7.70	1.2	(0.1)	–	–
CCCCOc1ccc(S(=O)(=O)N2CCC(NC[C@H](O)COc3cccc4[nH]c(=O)[nH]c34)CC2)cc1 [Example 9, 4-((2S)-3-[1-(4-Butoxy-benzenesulfonyl)-piperidin-4-ylamino]-2-hydroxy-propoxy}-1,3-dihydro-benzoimidazol-2-one]	–	–	–	6.30	0.8	–	–	–
COc1ccc(S(=O)(=O)N2CCC(NC[C@H](O)COc3cccc4[nH]c(=O)[nH]c34)CC2)cc1OC [Example 20, 4-{(2S)-3-[1-(3,4-Dimethoxy-benzenesulfonyl)-piperidin-4-ylamino]-2-hydroxy-propoxy}-1,3-dihydro-benzoimidazol-2-one]	–	(0.01)	–	7.10	0.87	(0.3)	–	–
CCCCOc1ccc(S(=O)(=O)N2CCC(NC[C@H](O)COc3cccc4[nH]c5ccccc5c34)C2)cc1 (stereo partly drawn) [Example 7, (2S)-1-[1-(4-Butoxy-benzenesulfonyl)-pyrrolidin-3-ylamino]-3-(9H-carbazol-4-yloxy)-propan-2-ol]	118 to 119	–	–	–	–	–	–	–
